Results published in patent US7507739B2, “6-[(substituted)phenyl]triazolopyrimidines as anticancer agents” (Wyeth, priority 2003, dated 2009).

Key:
HeLa cells = test: Cell cycle analysis with HeLa cells; type: cell-based, human; conditions: 18 hr
Description: HeLa cells are harvested by trypsinization, washed, counted and distributed to wells of 12-well plates at 125,000 cells per well in 2 mL medium. Cells are cultured overnight. […] Cells are continued in culture for 18 hr after compound addition, then cells in each well are harvested (taking care to recover both adherent and non-adherent cells) and processed using the CycleTEST PLUS kit (Becton Dickinson Immunocytometry Systems, San Jose, Calif.). Flow cytometry is done with a FACSort instrument (Becton Dickinson).
This procedure measures the percentages of cells in a population that are in the G1, S, and G2/M phases of the cell cycle. It utilizes staining of cell nuclei with propidium iodide and analysis by flow cytometry.

[1] = system: DLD1 Human Colon Carcinoma; test: Human tumor xenograft test, DLD1; type: in vivo; conditions: days 1, 5, 9, 13

`CNCCCOc1cc(F)c(-c2c(Cl)nc3ncnn3c2NCC(F)(F)F)c(F)c1.Cl` [Example 3a, 5-Chloro-6-{2,6-difluoro-4-[3-(methylamino)propoxy]phenyl}-N-(2,2,2-trifluoroethyl)[1,2,4]triazolo[1,5-a]pyrimidin-7-amine hydrogen chloride Salt] was tested. Which “Percent in Cell Cycle Phase >4N” value (HeLa cells; 20 nM) did it give?
The value was 1%.

And the “Percent in Cell Cycle Phase Apop” value (HeLa cells; 20 nM)?
Its value is 29%.

What about the “Percent in Cell Cycle Phase G1” value (HeLa cells; 20 nM) of the same compound?
Its value is 42%.

And the “Percent in Cell Cycle Phase G2/M” value (HeLa cells; 20 nM)?
Its value is 16%.

What about the “Percent in Cell Cycle Phase S” value (HeLa cells; 20 nM) of the same compound?
Its value is 12%.

And the “Percent in Cell Cycle Phase >4N” value (HeLa cells; 30 nM)?
The value was 2%.

What about the “Percent in Cell Cycle Phase Apop” value (HeLa cells; 30 nM) of the same compound?
The value was 55%.

What about the “Percent in Cell Cycle Phase G1” value (HeLa cells; 30 nM) of the same compound?
Its value is 11%.

And the “Percent in Cell Cycle Phase G2/M” value (HeLa cells; 30 nM)?
Its value is 21%.

And the “Percent in Cell Cycle Phase S” value (HeLa cells; 30 nM)?
The value was 11%.

What about the “Percent in Cell Cycle Phase >4N” value (HeLa cells; 40 nM) of the same compound?
The value was 3%.

What about the “Percent in Cell Cycle Phase Apop” value (HeLa cells; 40 nM) of the same compound?
The value was 50%.

What about the “Percent in Cell Cycle Phase G1” value (HeLa cells; 40 nM) of the same compound?
Its value is 6%.

And the “Percent in Cell Cycle Phase G2/M” value (HeLa cells; 40 nM)?
Its value is 31%.

What about the “Percent in Cell Cycle Phase S” value (HeLa cells; 40 nM) of the same compound?
Its value is 10%.

What about the “Percent in Cell Cycle Phase >4N” value (HeLa cells; 50 nM) of the same compound?
Its value is 3%.

What about the “Percent in Cell Cycle Phase Apop” value (HeLa cells; 50 nM) of the same compound?
The value was 32%.

What about the “Percent in Cell Cycle Phase G1” value (HeLa cells; 50 nM) of the same compound?
The value was 5%.

And the “Percent in Cell Cycle Phase G2/M” value (HeLa cells; 50 nM)?
Its value is 52%.

And the “Percent in Cell Cycle Phase S” value (HeLa cells; 50 nM)?
Its value is 8%.

What about the “Percent in Cell Cycle Phase >4N” value (HeLa cells; 60 nM) of the same compound?
The value was 4%.

And the “Percent in Cell Cycle Phase Apop” value (HeLa cells; 60 nM)?
The value was 25%.

And the “Percent in Cell Cycle Phase G1” value (HeLa cells; 60 nM)?
Its value is 4%.

And the “Percent in Cell Cycle Phase G2/M” value (HeLa cells; 60 nM)?
Its value is 58%.

And the “Percent in Cell Cycle Phase S” value (HeLa cells; 60 nM)?
Its value is 9%.

What about the “Percent in Cell Cycle Phase >4N” value (HeLa cells; 70 nM) of the same compound?
The value was 4%.

And the “Percent in Cell Cycle Phase Apop” value (HeLa cells; 70 nM)?
The value was 21%.

What about the “Percent in Cell Cycle Phase G1” value (HeLa cells; 70 nM) of the same compound?
The value was 5%.

And the “Percent in Cell Cycle Phase G2/M” value (HeLa cells; 70 nM)?
Its value is 61%.

What about the “Percent in Cell Cycle Phase S” value (HeLa cells; 70 nM) of the same compound?
The value was 9%.

And the “Percent in Cell Cycle Phase >4N” value (HeLa cells; 80 nM)?
The value was 5%.

And the “Percent in Cell Cycle Phase Apop” value (HeLa cells; 80 nM)?
The value was 24%.

And the “Percent in Cell Cycle Phase G1” value (HeLa cells; 80 nM)?
Its value is 5%.

And the “Percent in Cell Cycle Phase G2/M” value (HeLa cells; 80 nM)?
Its value is 57%.

What about the “Percent in Cell Cycle Phase S” value (HeLa cells; 80 nM) of the same compound?
The value was 11%.

What about the “Percent in Cell Cycle Phase >4N” value (HeLa cells; 90 nM) of the same compound?
Its value is 4%.

What about the “Percent in Cell Cycle Phase Apop” value (HeLa cells; 90 nM) of the same compound?
The value was 23%.

And the “Percent in Cell Cycle Phase G1” value (HeLa cells; 90 nM)?
Its value is 5%.

And the “Percent in Cell Cycle Phase G2/M” value (HeLa cells; 90 nM)?
The value was 60%.

What about the “Percent in Cell Cycle Phase S” value (HeLa cells; 90 nM) of the same compound?
The value was 8%.

What about the “Percent in Cell Cycle Phase >4N” value (HeLa cells; 100 nM) of the same compound?
Its value is 5%.

What about the “Percent in Cell Cycle Phase Apop” value (HeLa cells; 100 nM) of the same compound?
Its value is 25%.

And the “Percent in Cell Cycle Phase G1” value (HeLa cells; 100 nM)?
The value was 5%.

What about the “Percent in Cell Cycle Phase G2/M” value (HeLa cells; 100 nM) of the same compound?
The value was 55%.

What about the “Percent in Cell Cycle Phase S” value (HeLa cells; 100 nM) of the same compound?
Its value is 10%.

What about the “Percent in Cell Cycle Phase >4N” value (HeLa cells; 110 nM) of the same compound?
Its value is 5%.

What about the “Percent in Cell Cycle Phase Apop” value (HeLa cells; 110 nM) of the same compound?
The value was 26%.

And the “Percent in Cell Cycle Phase G1” value (HeLa cells; 110 nM)?
The value was 6%.

What about the “Percent in Cell Cycle Phase G2/M” value (HeLa cells; 110 nM) of the same compound?
The value was 54%.

And the “Percent in Cell Cycle Phase S” value (HeLa cells; 110 nM)?
Its value is 10%.

And the “Percent in Cell Cycle Phase >4N” value (HeLa cells; 120 nM)?
The value was 5%.

What about the “Percent in Cell Cycle Phase Apop” value (HeLa cells; 120 nM) of the same compound?
The value was 30%.

And the “Percent in Cell Cycle Phase G1” value (HeLa cells; 120 nM)?
The value was 6%.

What about the “Percent in Cell Cycle Phase G2/M” value (HeLa cells; 120 nM) of the same compound?
The value was 48%.

What about the “Percent in Cell Cycle Phase S” value (HeLa cells; 120 nM) of the same compound?
Its value is 12%.

What about the “T/C on day 0” value ([1]; DLD1, 10 mg/kg IV) of the same compound?
Its value is 1.00.

And the “T/C on day 7” value ([1]; DLD1, 10 mg/kg IV)?
The value was 0.77.

And the “T/C on day 14” value ([1]; DLD1, 10 mg/kg IV)?
The value was 0.75.

And the “T/C on day 21” value ([1]; DLD1, 10 mg/kg IV)?
Its value is 0.84.

What about the “T/C on day 0” value ([1]; DLD1, 20 mg/kg IV) of the same compound?
The value was 1.00.

And the “T/C on day 7” value ([1]; DLD1, 20 mg/kg IV)?
The value was 0.55.

What about the “T/C on day 14” value ([1]; DLD1, 20 mg/kg IV) of the same compound?
Its value is 0.56.

And the “T/C on day 21” value ([1]; DLD1, 20 mg/kg IV)?
Its value is 0.73.

What about the “T/C on day 0” value ([1]; DLD1, 25 mg/kg IV) of the same compound?
Its value is 1.00.

And the “T/C on day 7” value ([1]; DLD1, 25 mg/kg IV)?
Its value is 0.59.

What about the “T/C on day 14” value ([1]; DLD1, 25 mg/kg IV) of the same compound?
Its value is 0.46.

And the “T/C on day 21” value ([1]; DLD1, 25 mg/kg IV)?
The value was 0.60.
